According to PubChem BioAssay (NCI):
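GI50: concentration for 50% inhibition of growth. The concentration for full growth arrest is given as TGI.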

What was measured:
Test in all cases: inhibition of tumour cell growth, NCI panel, 384-well format
SNB-75 CNS = tested on: SNB-75 CNS
NCI/ADR-RES ovarian = tested on: NCI/ADR-RES ovarian
A498 renal = tested on: A498 renal
PC-3 prostate = tested on: PC-3 prostate
SK-OV-3 ovarian = tested on: SK-OV-3 ovarian
SW-620 colon = tested on: SW-620 colon
SK-MEL-5 melanoma = tested on: SK-MEL-5 melanoma
HOP-62 NSCLC = tested on: HOP-62 NSCLC
SK-MEL-28 melanoma = tested on: SK-MEL-28 melanoma
NCI-H23 lung = tested on: NCI-H23 lung
NCI-H322M lung = tested on: NCI-H322M lung
TK-10 renal = tested on: TK-10 renal
NCI-H522 lung = tested on: NCI-H522 lung
K-562 leukemia = tested on: K-562 leukemia
MOLT-4 leukemia = tested on: MOLT-4 leukemia
M14 melanoma = tested on: M14 melanoma
LOX IMVI melanoma = tested on: LOX IMVI melanoma
HOP-92 NSCLC = tested on: HOP-92 NSCLC
NCI-H226 lung = tested on: NCI-H226 lung
CAKI-1 renal = tested on: CAKI-1 renal
COLO 205 colon = tested on: COLO 205 colon
UACC-62 melanoma = tested on: UACC-62 melanoma
SNB-19 CNS = tested on: SNB-19 CNS
UACC-257 melanoma = tested on: UACC-257 melanoma
U251 glioblastoma = tested on: U251 glioblastoma
HCC-2998 colon = tested on: HCC-2998 colon
IGROV1 ovarian = tested on: IGROV1 ovarian
OVCAR-5 ovarian = tested on: OVCAR-5 ovarian
HCT-15 colon = tested on: HCT-15 colon
BT-549 breast = tested on: BT-549 breast
EKVX NSCLC = tested on: EKVX NSCLC
A549 NSCLC = tested on: A549 NSCLC
MCF7 breast = tested on: MCF7 breast
MDA-MB-231 breast = tested on: MDA-MB-231 breast
MDA-MB-468 breast = tested on: MDA-MB-468 breast
MDA-MB-435 melanoma = tested on: MDA-MB-435 melanoma
OVCAR-3 ovarian = tested on: OVCAR-3 ovarian
OVCAR-4 ovarian = tested on: OVCAR-4 ovarian
HS 578T breast = tested on: HS 578T breast
KM12 colon = tested on: KM12 colon
ACHN renal = tested on: ACHN renal
786-0 renal = tested on: 786-0 renal
UO-31 renal = tested on: UO-31 renal
SF-539 CNS = tested on: SF-539 CNS
OVCAR-8 ovarian = tested on: OVCAR-8 ovarian
NCI-H460 NSCLC = tested on: NCI-H460 NSCLC
SN12C renal = tested on: SN12C renal
CCRF-CEM leukemia = tested on: CCRF-CEM leukemia
HT29 colon = tested on: HT29 colon
HL-60(TB) leukemia = tested on: HL-60(TB) leukemia
T-47D breast = tested on: T-47D breast
DU-145 prostate = tested on: DU-145 prostate
RPMI-8226 leukemia = tested on: RPMI-8226 leukemia
HCT-116 colon = tested on: HCT-116 colon
RXF 393 renal = tested on: RXF 393 renal
SF-268 CNS = tested on: SF-268 CNS
SF-295 CNS = tested on: SF-295 CNS
MALME-3M melanoma = tested on: MALME-3M melanoma

SMILES: COc1c(Nc2ncc(Cl)c(N[C@@H]3[C@H]4C=CC(C4)[C@@H]3C(N)=O)n2)ccc2c1CC[C@@H](N1CCOCC1)CC2
- GI50 (SNB-75 CNS): 1290 nM
- TGI (SNB-75 CNS): 2770 nM
- GI50 (NCI/ADR-RES ovarian): 1970 nM
- TGI (NCI/ADR-RES ovarian): 4660 nM
- GI50 (A498 renal): 1950 nM
- TGI (A498 renal): 10600 nM
- GI50 (PC-3 prostate): 2270 nM
- TGI (PC-3 prostate): 8980 nM
- GI50 (SK-OV-3 ovarian): 1780 nM
- TGI (SK-OV-3 ovarian): 7550 nM
- GI50 (SW-620 colon): 1660 nM
- TGI (SW-620 colon): 3250 nM
- GI50 (SK-MEL-5 melanoma): 1370 nM
- TGI (SK-MEL-5 melanoma): 6790 nM
- GI50 (HOP-62 NSCLC): 1700 nM
- TGI (HOP-62 NSCLC): 5360 nM
- GI50 (SK-MEL-28 melanoma): 1540 nM
- TGI (SK-MEL-28 melanoma): 5220 nM
- GI50 (NCI-H23 lung): 1680 nM
- TGI (NCI-H23 lung): 5940 nM
- GI50 (NCI-H322M lung): 2750 nM
- TGI (NCI-H322M lung): 11500 nM
- GI50 (TK-10 renal): 2290 nM
- TGI (TK-10 renal): 7860 nM
- GI50 (NCI-H522 lung): 1440 nM
- TGI (NCI-H522 lung): 3700 nM
- GI50 (K-562 leukemia): 1780 nM
- TGI (K-562 leukemia): 3680 nM
- GI50 (MOLT-4 leukemia): 311 nM
- TGI (MOLT-4 leukemia): 1430 nM
- GI50 (M14 melanoma): 817 nM
- TGI (M14 melanoma): 2570 nM
- GI50 (LOX IMVI melanoma): 1330 nM
- TGI (LOX IMVI melanoma): 2680 nM
- GI50 (HOP-92 NSCLC): 1300 nM
- TGI (HOP-92 NSCLC): 3260 nM
- GI50 (NCI-H226 lung): 676 nM
- TGI (NCI-H226 lung): 4670 nM
- GI50 (CAKI-1 renal): 1350 nM
- TGI (CAKI-1 renal): 2780 nM
- GI50 (COLO 205 colon): 1110 nM
- TGI (COLO 205 colon): 2690 nM
- GI50 (UACC-62 melanoma): 688 nM
- TGI (UACC-62 melanoma): 2920 nM
- GI50 (SNB-19 CNS): 5100 nM
- TGI (SNB-19 CNS): 17400 nM
- GI50 (UACC-257 melanoma): 1510 nM
- TGI (UACC-257 melanoma): 3530 nM
- GI50 (U251 glioblastoma): 1760 nM
- TGI (U251 glioblastoma): 6500 nM
- GI50 (HCC-2998 colon): 1240 nM
- TGI (HCC-2998 colon): 3090 nM
- GI50 (IGROV1 ovarian): 1400 nM
- TGI (IGROV1 ovarian): 9590 nM
- GI50 (OVCAR-5 ovarian): 1350 nM
- TGI (OVCAR-5 ovarian): 4580 nM
- GI50 (HCT-15 colon): 2150 nM
- TGI (HCT-15 colon): 10100 nM
- GI50 (BT-549 breast): 1620 nM
- TGI (BT-549 breast): 3160 nM
- GI50 (EKVX NSCLC): 1500 nM
- TGI (EKVX NSCLC): 4530 nM
- GI50 (A549 NSCLC): 1270 nM
- TGI (A549 NSCLC): 5570 nM
- GI50 (MCF7 breast): 1750 nM
- TGI (MCF7 breast): 11900 nM
- GI50 (MDA-MB-231 breast): 1540 nM
- TGI (MDA-MB-231 breast): 6140 nM
- GI50 (MDA-MB-468 breast): 1280 nM
- TGI (MDA-MB-468 breast): 2990 nM
- GI50 (MDA-MB-435 melanoma): 1700 nM
- TGI (MDA-MB-435 melanoma): 8330 nM
- GI50 (OVCAR-3 ovarian): 3110 nM
- TGI (OVCAR-3 ovarian): 11800 nM
- GI50 (OVCAR-4 ovarian): 7050 nM
- TGI (OVCAR-4 ovarian): 19600 nM
- GI50 (HS 578T breast): 1560 nM
- TGI (HS 578T breast): 2970 nM
- GI50 (KM12 colon): 1680 nM
- TGI (KM12 colon): 10400 nM
- GI50 (ACHN renal): 2160 nM
- TGI (ACHN renal): 9250 nM
- GI50 ([…]-0 renal): 1480 nM
- TGI (786-0 renal): 2940 nM
- GI50 (UO-31 renal): 1560 nM
- TGI (UO-31 renal): 4900 nM
- GI50 (SF-539 CNS): 1250 nM
- TGI (SF-539 CNS): 2570 nM
- GI50 (OVCAR-8 ovarian): 2700 nM
- TGI (OVCAR-8 ovarian): 9480 nM
- GI50 (NCI-H460 NSCLC): 1960 nM
- TGI (NCI-H460 NSCLC): 5260 nM
- GI50 (SN12C renal): 1190 nM
- TGI (SN12C renal): 5330 nM
- GI50 (CCRF-CEM leukemia): 1510 nM
- TGI (CCRF-CEM leukemia): 3030 nM
- GI50 (HT29 colon): 1240 nM
- TGI (HT29 colon): 2580 nM
- GI50 (HL-60(TB) leukemia): 1550 nM
- TGI (HL-60(TB) leukemia): 3010 nM
- GI50 (T-47D breast): 1940 nM
- TGI (T-47D breast): 5310 nM
- GI50 (DU-145 prostate): 2880 nM
- TGI (DU-145 prostate): 12300 nM
- GI50 (RPMI-8226 leukemia): 1210 nM
- TGI (RPMI-8226 leukemia): 3000 nM
- GI50 (HCT-116 colon): 1270 nM
- TGI (HCT-116 colon): 2620 nM
- GI50 (RXF 393 renal): 1580 nM
- TGI (RXF 393 renal): 3170 nM
- GI50 (SF-268 CNS): 206 nM
- TGI (SF-268 CNS): 2500 nM
- GI50 (SF-295 CNS): 1950 nM
- TGI (SF-295 CNS): 10300 nM
- GI50 (MALME-3M melanoma): 866 nM
- TGI (MALME-3M melanoma): 2660 nM
